Active and inactive are the calls of the source. No cut-off for these calls is given here.

Experiment [1] concerns the target Lysine-specific histone demethylase 1A (Homo sapiens, UniProt O60341).
Description: Inhibition of recombinant human LSD1 expressed in Escherichia coli BL21(DE3) using H3K4me2 as substrate by fluorescence assay
The subject of a further experiment is MGC-803. Description: Effect on total H3 protein expression in human MGC803 cells at 0.1 to 0.5 uM after 48 hrs by Western blot analysis. It is filed as functional, cell-based.
Experiment [2] addresses T1, Amine oxidase [flavin-containing] B (Homo sapiens, UniProt P27338).
T1 sequence (P27338 whole entry): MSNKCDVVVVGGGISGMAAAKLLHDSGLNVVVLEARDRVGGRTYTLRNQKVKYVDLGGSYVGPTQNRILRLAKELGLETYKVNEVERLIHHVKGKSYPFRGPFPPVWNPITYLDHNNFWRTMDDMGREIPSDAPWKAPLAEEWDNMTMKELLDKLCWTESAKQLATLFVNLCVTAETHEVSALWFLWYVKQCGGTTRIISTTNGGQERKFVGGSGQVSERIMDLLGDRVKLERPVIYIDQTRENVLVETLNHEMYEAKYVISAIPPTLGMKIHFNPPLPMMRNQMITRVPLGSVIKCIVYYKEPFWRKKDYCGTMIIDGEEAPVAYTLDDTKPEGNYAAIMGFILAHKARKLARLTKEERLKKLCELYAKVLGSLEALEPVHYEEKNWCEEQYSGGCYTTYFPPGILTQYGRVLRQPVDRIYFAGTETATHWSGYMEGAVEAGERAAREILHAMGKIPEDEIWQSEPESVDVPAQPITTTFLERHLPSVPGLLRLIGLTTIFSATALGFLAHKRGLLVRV
Description: Inhibition of MAO-B (unknown origin)

Experiment [3] has as its target T2, Amine oxidase [flavin-containing] A (Homo sapiens, UniProt P21397).
T2 sequence (P21397 whole entry): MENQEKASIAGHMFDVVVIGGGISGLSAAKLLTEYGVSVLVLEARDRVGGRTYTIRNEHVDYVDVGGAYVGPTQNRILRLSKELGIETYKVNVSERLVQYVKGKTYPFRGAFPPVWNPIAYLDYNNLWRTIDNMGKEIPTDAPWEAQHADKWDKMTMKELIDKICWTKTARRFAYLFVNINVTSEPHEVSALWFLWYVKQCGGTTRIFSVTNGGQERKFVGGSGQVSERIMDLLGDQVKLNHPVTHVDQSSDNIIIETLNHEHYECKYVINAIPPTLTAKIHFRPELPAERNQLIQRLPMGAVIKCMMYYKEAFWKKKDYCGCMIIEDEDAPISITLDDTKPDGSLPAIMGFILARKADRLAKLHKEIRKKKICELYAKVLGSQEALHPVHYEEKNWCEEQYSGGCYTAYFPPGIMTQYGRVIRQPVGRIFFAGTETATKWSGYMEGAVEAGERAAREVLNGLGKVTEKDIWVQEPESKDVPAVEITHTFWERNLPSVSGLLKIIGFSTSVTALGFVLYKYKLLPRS
Description: Inhibition of MAO-A (unknown origin)

Take `CC(C)(C)OC(=O)N1CCN(C(=S)SCc2cn(Cc3cc4ccccc4oc3=O)nn2)CC1`: in experiment [1], the IC50 was greater than 125 µM.

With `CC(C)(C)OC(=O)N1CCN(C(=S)SCc2cn(Cc3cc(=O)oc4ccc(Cl)cc34)nn2)CC1`, the IC50 in experiment [1] is greater than 125 µM.

`CC(C)(C)OC(=O)N1CCN(C(=S)SCc2cn(Cc3cc4ccc(O)cc4oc3=O)nn2)CC1` showed a half-maximal inhibitory concentration (IC50) in experiment [1] of 103 µM.

Regarding `CC(C)(C)OC(=O)N1CCN(C(=S)SCc2cn(Cc3cc(=O)oc4cc(O)ccc34)nn2)CC1`, the result in the experiment on MGC-803 was inactive. In addition, the IC50 in experiment [2] and in experiment [3] was greater than 1250 µM in each case.

Regarding `Cc1ccc2oc(=O)cc(Cn3cc(CSC(=S)N4CCN(C(=O)OC(C)(C)C)CC4)nn3)c2c1`, the IC50 in experiment [1] was greater than 125 µM.

Regarding `Cc1cc(O)cc2oc(=O)cc(Cn3cc(CSC(=S)N4CCN(C(=O)OC(C)(C)C)CC4)nn3)c12`, in experiment [1], the IC50 was greater than 125 µM.

A word on the IC50: it is the point on the concentration scale where inhibition reaches its midpoint. Low values mean greater potency in that assay, high ones weaker potency in that assay.
